Measurements published in PMC5013292, “A Putative Bacterial ABC Transporter Circumvents the Essentiality of Signal Peptidase” (mBio, 2016).

Columns and labels:
[1] = system: Δmcr cro/cI(Q16stop) Δ(SAUSA300_0351-SAUSA300_0352-SAUSA300_0353) (GNE0220); assay: MIC fold increase, GNE0220; assay type: cell-based, S. aureus
Method: (§1) MICs were determined according to the standard protocol from the Clinical and Laboratory Standards Institute ([23]). Briefly, S. aureus bacteria were harvested from regular MHA plates that had been cultured for ~20 h at 37°C. Serial dilutions of compound 103 were incubated with bacteria at approximately 10^6 CFU (CFU)/ml in MHB in round-bottom 96 well plates (Corning, Corning, NY) for 22 h at 37°C. MICs were determined by the lowest concentration of compound 103 showing absence of growth by visual inspection.
(§2) To generate mutations in SAUSA300_0351, _0352, and _0353 genes by homologous recombination, we transformed USA300 Δmcr using targeting constructs created in the vector pIMAY ([24]). To generate mutations in SAUSA300_0351, _0352, and _0353 genes in a cro/cI mutant background, we selected colonies from USA300 Δmcr cultured on plates containing fourfold the MIC of compound 103. Sequencing of PCR products of the cro/cI gene from resistant colonies yielded a clone with a Q16stop codon mutation in cro/cI (strain GNE0173). We further mutated SAUSA300_0351, _0352, and _0353 in this USA300 Δmcr cro/cI (Q16stop) clone to study the contributions of these three genes to cro/cI-mediated resistance.

[2] = system: SpsB Y30D mutant of USA300 Δmcr cro/cI(Q16stop) SAUSA300_0352(K44A); assay: MIC fold increase, SpsB Y30D mutant; assay type: cell-based, S. aureus
Method: as §1

[3] = system: Δmcr cro/cI(Q16stop) ΔSAUSA300_0351 (GNE0209); assay: MIC fold increase, GNE0209; assay type: cell-based, S. aureus
Method: as §1, §2

[4] = system: cro/cI(−62G→A)(pcro/cI-cro/cI) (GNE0100); assay: MIC fold increase, GNE0100; assay type: cell-based, S. aureus
Method: as §1

[5] = system: SpsB Y30C mutant of USA300 Δmcr cro/cI(Q16stop) SAUSA300_0352(K44A); assay: MIC fold increase, SpsB Y30C mutant; assay type: cell-based, S. aureus
Method: as §1

[6] = system: S. aureus USA300 SpsB-high; assay: MIC, USA300 SpsB-high; assay type: cell-based; details: result in words
Method: as §1
A strain of USA300 Δmcr overexpressing SpsB (USA300 SpsB-high; GNE0028) was engineered by cloning SpsB under the constitutive sarA promoter into vector pMK4, resulting in SpsB expression that was ~20-fold higher than the wild-type level as determined by Western blotting. A USA300 Δmcr strain that underexpresses SpsB (USA300 SpsB-low; […]) was generated by genomic incorporation of spsB under the isopropyl-β-D-thiogalactopyranoside (IPTG)-sensitive promoter spac; without IPTG, this strain expresses SpsB at ~5% of the wild-type level as determined by Western blotting.

[7] = system: cro/cI(−14G→T)(pMK4) (GNE0096); assay: MIC fold increase, GNE0096; assay type: cell-based, S. aureus
Method: as §1

[8] = biological target: T1, full length recombinant SpsB (Staphylococcus aureus, UniProt P0A070); assay: Enzymatic activity of recombinant SpsB; assay type: biochemical, S. aureus; details: result in words; Fig. S1C
T1 construct: 500 pM full length recombinant SpsB from S. aureus
T1 sequence (P0A070 whole entry): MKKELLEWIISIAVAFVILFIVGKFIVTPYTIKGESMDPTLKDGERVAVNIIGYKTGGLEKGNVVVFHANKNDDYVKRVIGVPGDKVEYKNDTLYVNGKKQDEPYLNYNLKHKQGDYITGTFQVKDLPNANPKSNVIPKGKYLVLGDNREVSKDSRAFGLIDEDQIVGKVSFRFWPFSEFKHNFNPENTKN
Method: White 384-well low-volume polypropylene assay plates (Thermo Scientific, Waltham, MA) were pre-spotted with 25 nL per well of compound 103, serially diluted in DMSO, using an Echo instrument (Labcyte, Sunnyvale, CA). A 10 µL reaction in PBS (pH 7.4) containing 0.1% Triton X-100 was then initiated by adding 500 pM full length recombinant SpsB from S. aureus plus 10 µM fluorogenic peptide substrate Dabcyl-βAla-KPAKAAE-Edans (GL Biochem, Boston, MA). Substrate cleavage separates the Dabcyl quencher from the Edans fluorophore, resulting in 490nm fluorescence (340nm excitation). The reaction was read kinetically using an M-1000 plate reader (Tecan, Morrisville, NC), plotting the initial slope (rate) of fluorescence generation versus inhibitor concentration to derive IC50 values.

[9] = system: cro/cI(M1V)(pcro/cI-cro/cI) (GNE0109); assay: MIC fold increase, GNE0109; assay type: cell-based, S. aureus
Method: as §1

## CCCCc1ccc(-c2ccc(C(=O)N[C@@H](CCCCN)C(=O)N(C)[C@@H]3C(=O)N[C@@H](C)C(=O)N[C@H](C(=O)NCC(C)C(=O)O)Cc4ccc(O)c(c4)-c4cc3ccc4O)cc2)cc1 (stereo partly shown) [Compound 103]
[1]; GNE0220
  MIC of compound 103 (fold increase versus MIC for USA300 WT): 2.0 fold
[1]; GNE0220, deletion of all 3 ABC transporter genes, result in words
  resistance phenotype: reversed the resistant phenotype
[2]
  MIC of compound 103 (fold increase versus MIC for USA300 WT): 8 fold
[3]; GNE0209
  MIC of compound 103 (fold increase versus MIC for USA300 WT): >32 fold
[3]; GNE0209, deletion of SAUSA300_0351, result in words
  resistance phenotype: had no effect on the resistance phenotype
[4]; GNE0100
  MIC of compound 103 (fold increase versus MIC for USA300 WT): >32 fold
[4]; GNE0100, plasmid-encoded WT cro/cI, result in words
  resistance phenotype: could not complement the phenotype
[5]
  MIC of compound 103 (fold increase versus MIC for USA300 WT): 4 fold
[6]
  MIC for an SpsB-overexpressing strain: increased MIC
[7]
  MIC of compound 103 (fold increase versus MIC for USA300 WT): >32 fold
[8]
  inhibition of enzymatic activity of recombinant SpsB: dose dependently inhibited
[9]; GNE0109
  MIC of compound 103 (fold increase versus MIC for USA300 WT): 1.7 fold
[9]; GNE0109, plasmid-encoded WT cro/cI, result in words
  resistance phenotype: reversed the resistant phenotype
